Test results reported in ChEMBL document CHEMBL2417370, “The effect of novel [3-fluoro-(2-phosphonoethoxy)propyl]purines on the inhibition of Plasmodium falciparum, Plasmodium vivax and human hypoxanthine-guanine-(xanthine) phosphoribosyltransferases” (Eur J Med Chem, 2013).
Active and inactive are the calls of the source. No cut-off for these calls is given here.

Assays:
[1] = Inhibition of recombinant Plasmodium falciparum HGXPRT expressed in Escherichia coli Sphi606 cells by spectrophotometric analysis
[2] = Inhibition of recombinant Plasmodium vivax HGXPRT expressed in Escherichia coli by spectrophotometric analysis
[3] = tested on: Maize streak virus; assay: Antiviral activity against MSV; type: functional
[4] = tested on: Human immunodeficiency virus; assay: Antiviral activity against HIV; type: functional, organism-based
[5] = target: T1, Hypoxanthine-guanine phosphoribosyltransferase (Homo sapiens, UniProt P00492); assay: Inhibition of recombinant human HGPRT expressed in Escherichia coli Sphi606 cells by spectrophotometric analysis
T1 sequence (P00492 whole entry): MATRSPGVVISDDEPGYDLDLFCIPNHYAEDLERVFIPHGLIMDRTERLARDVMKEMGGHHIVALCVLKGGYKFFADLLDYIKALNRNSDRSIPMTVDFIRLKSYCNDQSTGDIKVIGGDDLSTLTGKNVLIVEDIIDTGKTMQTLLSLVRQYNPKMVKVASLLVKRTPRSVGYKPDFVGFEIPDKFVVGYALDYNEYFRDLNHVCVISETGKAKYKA

[6] = tested on: Bordetella pertussis; assay: Effect on Bordetella pertussis adenylyl cyclase
[7] = tested on: Hepatitis C virus; assay: Antiviral activity against HCV; type: functional, organism-based; conditions: Hepacivirus hominis

SMILES	Ki [1]	Ki [2]	Activity [3]	Activity [4]	Ki [5]	Activity [6]	Activity [7]
Nc1nc2c(ncn2C[C@@H](CF)OCCP(=O)(O)O)c(=O)[nH]1	1.2 µM	3.4 µM	inactive	inactive	0.1 µM	inactive	inactive
Nc1nc2c(ncn2CC(CF)OCCP(=O)(O)O)c(=O)[nH]1 (racemic)	1 µM	7 µM	inactive	inactive	3.7 µM	inactive	inactive
Nc1nc(O)c2ncn(C[C@H](CF)OCP(=O)(O)O)c2n1	≥ 300 µM	≥ 300 µM			≥ 300 µM		
Nc1nc(O)c2ncn(C[C@@H](CF)OCP(=O)(O)O)c2n1	≥ 250 µM	≥ 250 µM			≥ 250 µM		
O=c1[nH]cnc2c1ncn2CC(CF)OCCP(=O)(O)O (racemic)	≥ 200 µM	≥ 100 µM	inactive	inactive	5.4 µM	inactive	inactive
Nc1ncnc2c1ncn2CC(CF)OCCP(=O)(O)O (stereo unspecified)			inactive	inactive		inactive	inactive
O=c1[nH]cnc2c1ncn2C[C@H](CF)OCP(=O)(O)O	63 µM	≥ 200 µM			≥ 200 µM		
Nc1nc(NC2CC2)c2ncn(CC(CF)OCCP(=O)(O)O)c2n1 (stereo unspecified)			inactive	inactive		inactive	inactive
O=c1[nH]cnc2c1ncn2C[C@@H](CF)OCCP(=O)(O)O	≥ 300 µM	≥ 300 µM	inactive	inactive	1.6 µM	inactive	inactive
Nc1nc(N)c2ncn(CC(CF)OCCP(=O)(O)O)c2n1 (stereo unspecified)			inactive	inactive		inactive	inactive
Nc1nc2c(ncn2C[C@H](CF)OCCP(=O)(O)O)c(=O)[nH]1	1 µM	29 µM	inactive	inactive	4.7 µM	inactive	inactive
O=c1[nH]cnc2c1ncn2C[C@H](CF)OCCP(=O)(O)O	≥ 200 µM	≥ 200 µM	inactive	inactive	≥ 200 µM	inactive	inactive
O=c1[nH]cnc2c1ncn2C[C@@H](CF)OCP(=O)(O)O	13 µM	≥ 250 µM			≥ 250 µM		
